# Reference: the supplement of paper PMC11061612
# Tests used:
# Assay in all cases: combination Emax (second highest fraction inhibited in the dose matrix, 72 h); higher = more inhibition; extreme values may be limits of the assay
# [1] = system: 639-V (Bladder Carcinoma)
# Summary of the method: (§1)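 Bliss excess equals the observed combination effect minus the expected value EA + EB − EA·EB, where EA and EB are the effects of each agent alone. Combination Emax is the second-highest inhibition within the matrix. Inhibition was scaled from CellTiter-Glo 2.0 luminescence, with 0 set by vehicle wells and 1 by blank wells, after 72 hours of two-drug dosing of cells plated in 1536-well plates.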
# COLO-829 (Melanoma) = system: COLO-829 (Melanoma)
# Summary of the method: as §1
# [2] = system: CTB-1 (B-Cell Non-Hodgkin's Lymphoma)
# Summary of the method: as §1
# [3] = system: MHH-PREB-1 (B-Cell Non-Hodgkin's Lymphoma)
# Summary of the method: as §1
# [4] = system: NCI-H747 (Colorectal Carcinoma)
# Summary of the method: as §1
# [5] = system: SW626 (Colorectal Carcinoma)
# Summary of the method: as §1
# [6] = system: TE-4 (Esophageal Squamous Cell Carcinoma)
# Summary of the method: as §1
smiles,measurement,setting,value
"CN(CCO)CC[C@H](CSc1ccccc1)Nc1ccc(S(=O)(=O)NC(=O)c2ccc(N3CCC([C@@H](O)c4ccccc4-c4ccc(Cl)cc4)CC3)cc2)cc1S(=O)(=O)C(F)(F)F [AZD4320] + C[C@@H](Nc1cc(F)cc(F)c1)c1cc(C(=O)N(C)C)cc2c(=O)cc(N3CCOCC3)oc12 [AZD8186] (first compound max 1 µM, 7x7, partner max 3 µM)",combination Emax,[1],1
same,combination Emax,COLO-829 (Melanoma),0.277
same,combination Emax,[2],0.669
same,combination Emax,[3],0.277
same,combination Emax,[4],0.511
same,combination Emax,[5],0.651
same,combination Emax,[6],0.333
